Test results published in patent US9738595B2, “Carboxamide compounds” (SYNGENTA PARTICIPATIONS AG, priority 2013, dated 2017).

In the case of `CC(C)(NC(=O)c1c(F)cccc1F)C(=O)c1ccc([C@H]2C[C@@H]2C(F)(F)F)cc1` (racemic) [Compound 19.003, N-[1,1-dimethyl-2-oxo-2-[4-[trans-2-(trifluoromethyl)-1-cyclopropyl]phenyl]ethyl]-2,6-difluoro-benzamide], the melting point is reported as 65 to 82 °C. Compound `CC(C)(NC(=O)c1c(F)cccc1F)C(=O)c1ccc([C@H]2C[C@@H]2C(=O)O)cc1` (racemic) [Compound 19.061, trans-2-[4-[2-[(2,6-Difluorobenzoyl)amino]-2-methyl-propanoyl]phenyl]cyclopropane carboxylic acid] has a melting point of 115 to 116 °C. In the case of `CC(C)(C)OC(=O)N[C@H]1C[C@@H]1c1ccc(C(=O)C(C)(C)NC(=O)c2c(F)cccc2F)cc1` (racemic) [Compound 19.062, trans-tert-Butyl N-[2-[4-[2-[(2,6-difluorobenzoyl)amino]-2-methyl-propanoyl]phenyl]cyclopropyl]carbamate], the melting point is reported as 197 to 198 °C. Compound `CC(C)(NC(=O)c1c(F)cccc1F)C(=O)c1ccc(C2CC2)cc1` [Compound 19.001, N-[2-(4-cyclopropylphenyl)-1,1-dimethyl-2-oxo-ethyl]-2,6-difluoro-benzamide] has a melting point of 121 to 123 °C.
